Reference: PubChem BioAssay AID2060896 (Molecular Pharmacology Branch, DTP, NCI, 2025)
“And” between values parts separate entries of the source, which are not always exact repeats. Equal entries are not always repeated.

Test system: 941728-121-R-J1-PDC complex spheroid viability
Assay: Anticancer human tumor 941728-121-R-J1-PDC patient-derived lung adenocarcinoma cell line growth inhibition [RAS]
Conditions: for viability, T/C: stronger effect = lower value
Outline: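 Agents were tested in combination matrices in half-log decrements from a top concentration at or near clinical Cmax (10 microM if undetermined). Targets were multi-cell spheroids of tumour lines plus HUVEC and MSC stromal cells.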
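Also: spheroids exposed to compounds for 7 days before readout.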
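For viability, T/C in this document: 100% = DMSO vehicle control viability.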

CC(C)n1nc(-c2ccc3oc(N)nc3c2)c2c(N)ncnc21 + C#Cc1c(F)ccc2cc(O)cc(-c3ncc4c(N5CC6CCC(C5)N6)nc(OCC56CCCN5CC(F)C6)nc4c3F)c12 gave an IC50 (curve of first compound, second compound 0.0316 µM) of 3.97 nM, an IC50 (curve of first compound, second compound 0.1 µM) of 2.76 nM and an IC50 (curve of first compound, second compound 0.316 µM) of 1.26 nM. It also gave an IC50 (curve of first compound, second compound 1 µM) of under 0.316 nM, an IC50 (curve of first compound, second compound 3.16 µM) of under 0.316 nM and an IC50 (curve of first compound, second compound 10 µM) of under 0.316 nM. For the same compound, the viability, T/C (second compound 0.0316 µM, first compound 0.000316 µM) was 78.9%, the viability, T/C (second compound 0.0316 µM, first compound 0.001 µM) was 70.5% and the viability, T/C (second compound 0.0316 µM, first compound 0.00316 µM) was 51%. For the same compound, the viability, T/C (second compound 0.0316 µM, first compound 0.01 µM) was 39.2%, the viability, T/C (second compound 0.0316 µM, first compound 0.0316 µM) was 31.6% and the viability, T/C (second compound 0.0316 µM, first compound 0.1 µM) was 26.3%. For the same compound, the viability, T/C (second compound 0.1 µM, first compound 0.000316 µM) was 68.5%, the viability, T/C (second compound 0.1 µM, first compound 0.001 µM) was 68.6% and the viability, T/C (second compound 0.1 µM, first compound 0.00316 µM) was 46.3%. For the same compound, the viability, T/C (second compound 0.1 µM, first compound 0.01 µM) was 33.9%, the viability, T/C (second compound 0.1 µM, first compound 0.0316 µM) was 27.8% and the viability, T/C (second compound 0.1 µM, first compound 0.1 µM) was 26.6%. The viability, T/C (second compound 0.316 µM, first compound 0.000316 µM) was 60.8%, the viability, T/C (second compound 0.316 µM, first compound 0.001 µM) was 51.7% and the viability, T/C (second compound 0.316 µM, first compound 0.00316 µM) was 42%. It also gave a viability, T/C (second compound 0.316 µM, first compound 0.01 µM) of 34.5%, a viability, T/C (second compound 0.316 µM, first compound 0.0316 µM) of 26.7% and a viability, T/C (second compound 0.316 µM, first compound 0.1 µM) of 26.3%. The viability, T/C (second compound 1 µM, first compound 0.000316 µM) was 33.6%, the viability, T/C (second compound 1 µM, first compound 0.001 µM) was 35.9% and the viability, T/C (second compound 1 µM, first compound 0.00316 µM) was 31.3%. It also gave a viability, T/C (second compound 1 µM, first compound 0.01 µM) of 23.7%, a viability, T/C (second compound 1 µM, first compound 0.0316 µM) of 21.1% and a viability, T/C (second compound 1 µM, first compound 0.1 µM) of 18.8%. The viability, T/C (second compound 3.16 µM, first compound 0.000316 µM) was 29.4%, the viability, T/C (second compound 3.16 µM, first compound 0.001 µM) was 30.4% and the viability, T/C (second compound 3.16 µM, first compound 0.00316 µM) was 25.9%. It also gave a viability, T/C (second compound 3.16 µM, first compound 0.01 µM) of 20.2%, a viability, T/C (second compound 3.16 µM, first compound 0.0316 µM) of 18.4% and a viability, T/C (second compound 3.16 µM, first compound 0.1 µM) of 15.9%. The viability, T/C (second compound 10 µM, first compound 0.000316 µM) was 24.1%, the viability, T/C (second compound 10 µM, first compound 0.001 µM) was 22.3% and the viability, T/C (second compound 10 µM, first compound 0.00316 µM) was 20%. The viability, T/C (second compound 10 µM, first compound 0.01 µM) was 15.9%, the viability, T/C (second compound 10 µM, first compound 0.0316 µM) was 11.5% and the viability, T/C (second compound 10 µM, first compound 0.1 µM) was 9.78%.

In the case of Cc1nc(N2CCC3(CC2)COC(C)C3N)c(CO)nc1Sc1ccnc(N)c1Cl (stereo not drawn), the viability, T/C (compound 0.0316 µM) is reported as 65.7% [middle of 4 runs], the viability, T/C (compound 0.1 µM) is reported as 55.1% [middle of 4 runs] and the viability, T/C (compound 0.316 µM) is reported as 43.4% [middle of 4 runs]. The viability, T/C (compound 1 µM) was 41.8% [middle of 4 runs], the viability, T/C (compound 3.16 µM) was 42.2% [middle of 4 runs] and the viability, T/C (compound 10 µM) was 40.1% [middle of 4 runs].

In the case of NC1c2ccccc2OC12CCN(c1cnc3c(N4CCCc5ncccc54)n[nH]c3n1)CC2 (stereo not drawn) + CCn1c(-c2cc(N3CCN(C)CC3)cnc2C(C)OC)c2c3cc(ccc31)-c1csc(n1)CC(NC(=O)C1CC1C)C(=O)N1CCCC(N1)C(=O)OCC(C)(C)C2, the IC50 (curve of first compound, second compound 0.000949 µM) is reported as under 31.6 nM, the IC50 (curve of first compound, second compound 0.003 µM) is reported as under 31.6 nM and the IC50 (curve of first compound, second compound 0.00949 µM) is reported as under 31.6 nM. The IC50 (curve of first compound, second compound 0.03 µM) was under 31.6 nM, the IC50 (curve of first compound, second compound 0.0949 µM) was under 31.6 nM and the IC50 (curve of first compound, second compound 0.3 µM) was under 31.6 nM. The viability, T/C (second compound 0.000949 µM, first compound 0.0316 µM) was 22%, the viability, T/C (second compound 0.000949 µM, first compound 0.1 µM) was 17.4% and the viability, T/C (second compound 0.000949 µM, first compound 0.316 µM) was 13.4%. The viability, T/C (second compound 0.000949 µM, first compound 1 µM) was 16.5%, the viability, T/C (second compound 0.000949 µM, first compound 3.16 µM) was 16.6% and the viability, T/C (second compound 0.000949 µM, first compound 10 µM) was 12%. It also gave a viability, T/C (second compound 0.003 µM, first compound 0.0316 µM) of 15.2%, a viability, T/C (second compound 0.003 µM, first compound 0.1 µM) of 12.4% and a viability, T/C (second compound 0.003 µM, first compound 0.316 µM) of 10.6%. It also gave a viability, T/C (second compound 0.003 µM, first compound 1 µM) of 14%, a viability, T/C (second compound 0.003 µM, first compound 3.16 µM) of 13.8% and a viability, T/C (second compound 0.003 µM, first compound 10 µM) of 10.3%. The viability, T/C (second compound 0.00949 µM, first compound 0.0316 µM) was 13.7%, the viability, T/C (second compound 0.00949 µM, first compound 0.1 µM) was 10.5% and the viability, T/C (second compound 0.00949 µM, first compound 0.316 µM) was 12.5%. It also gave a viability, T/C (second compound 0.00949 µM, first compound 1 µM) of 10.8%, a viability, T/C (second compound 0.00949 µM, first compound 3.16 µM) of 9.25% and a viability, T/C (second compound 0.00949 µM, first compound 10 µM) of 9.84%. For the same compound, the viability, T/C (second compound 0.03 µM, first compound 0.0316 µM) was 11.9%, the viability, T/C (second compound 0.03 µM, first compound 0.1 µM) was 12.4% and the viability, T/C (second compound 0.03 µM, first compound 0.316 µM) was 12.1%. It also gave a viability, T/C (second compound 0.03 µM, first compound 1 µM) of 11.1%, a viability, T/C (second compound 0.03 µM, first compound 3.16 µM) of 11.3% and a viability, T/C (second compound 0.03 µM, first compound 10 µM) of 15.1%. It also gave a viability, T/C (second compound 0.0949 µM, first compound 0.0316 µM) of 11.4%, a viability, T/C (second compound 0.0949 µM, first compound 0.1 µM) of 13.5% and a viability, T/C (second compound 0.0949 µM, first compound 0.316 µM) of 12.8%. The viability, T/C (second compound 0.0949 µM, first compound 1 µM) was 12.2%, the viability, T/C (second compound 0.0949 µM, first compound 3.16 µM) was 10.5% and the viability, T/C (second compound 0.0949 µM, first compound 10 µM) was 15.2%. It also gave a viability, T/C (second compound 0.3 µM, first compound 0.0316 µM) of 11.6%, a viability, T/C (second compound 0.3 µM, first compound 0.1 µM) of 12.1% and a viability, T/C (second compound 0.3 µM, first compound 0.316 µM) of 10.4%. For the same compound, the viability, T/C (second compound 0.3 µM, first compound 1 µM) was 10.9%, the viability, T/C (second compound 0.3 µM, first compound 3.16 µM) was 10.4% and the viability, T/C (second compound 0.3 µM, first compound 10 µM) was 15.5%.

CC1(O)CCCC1n1c(=O)c(C(F)F)cc2cnc(NC3CCN(S(C)(=O)=O)CC3)nc21 (stereo not drawn) was tested, and the viability, T/C (compound 0.0316 µM) was 87% [middle of 4 runs], the viability, T/C (compound 0.1 µM) was 84.6% [middle of 4 runs] and the viability, T/C (compound 0.316 µM) was 75.3% [middle of 4 runs]. For the same compound, the viability, T/C (compound 1 µM) was 83.9% [middle of 4 runs], the viability, T/C (compound 10 µM) was 51.8% [middle of 4 runs] and the IC50 (curve of compound) was 5940 nM and > 10000 nM and 7430 nM.

For CCc1c2c(nc3ccc(O)cc13)-c1cc3c(c(=O)n1C2)COC(=O)[C@]3(O)CC, the viability, T/C (compound 0.000949 µM) was 85.2% [middle of 4 runs], the viability, T/C (compound 0.003 µM) was 73.3% [middle of 4 runs] and the viability, T/C (compound 0.00949 µM) was 62.9% [middle of 4 runs]. For the same compound, the viability, T/C (compound 0.03 µM) was 67.4% [middle of 4 runs], the viability, T/C (compound 0.0949 µM) was 58.9% [middle of 4 runs] and the viability, T/C (compound 0.3 µM) was 50% [middle of 4 runs]. The IC50 (curve of compound) was 44.2 nM and > 300 nM and 89 nM.
